This passage reports IC50 results from patent US10233173B2, “Substituted 1,2,3-triazoles as NR2B-selective NMDA modulators” (JANSSEN PHARMACEUTICA NV, priority 2016, dated 2019).

Molecules are shown by their SMILES.

The target of the first assay is human GluN1/GluN2B NMDA receptors (Homo sapiens, UniProt Q05586+Q13224). Description: Cell-based calcium flux (FLIPR) assay on cloned human NR1/NR2B ion channels expressed in mammalian cells. Conditions: standard assay; glutamate at ~EC80; FLIPR calcium flux. A digest of the protocol: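 Calcium influx followed by FLIPR fluorescence after 5 min compound exposure and a further 5 min co-agonist challenge: 10 μM glycine with glutamate at ~EC80 (standard) or EC40 (HTS).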
human GluN1/GluN2B NMDA receptors, sequence (Q13224 27-1484, other chains not shown): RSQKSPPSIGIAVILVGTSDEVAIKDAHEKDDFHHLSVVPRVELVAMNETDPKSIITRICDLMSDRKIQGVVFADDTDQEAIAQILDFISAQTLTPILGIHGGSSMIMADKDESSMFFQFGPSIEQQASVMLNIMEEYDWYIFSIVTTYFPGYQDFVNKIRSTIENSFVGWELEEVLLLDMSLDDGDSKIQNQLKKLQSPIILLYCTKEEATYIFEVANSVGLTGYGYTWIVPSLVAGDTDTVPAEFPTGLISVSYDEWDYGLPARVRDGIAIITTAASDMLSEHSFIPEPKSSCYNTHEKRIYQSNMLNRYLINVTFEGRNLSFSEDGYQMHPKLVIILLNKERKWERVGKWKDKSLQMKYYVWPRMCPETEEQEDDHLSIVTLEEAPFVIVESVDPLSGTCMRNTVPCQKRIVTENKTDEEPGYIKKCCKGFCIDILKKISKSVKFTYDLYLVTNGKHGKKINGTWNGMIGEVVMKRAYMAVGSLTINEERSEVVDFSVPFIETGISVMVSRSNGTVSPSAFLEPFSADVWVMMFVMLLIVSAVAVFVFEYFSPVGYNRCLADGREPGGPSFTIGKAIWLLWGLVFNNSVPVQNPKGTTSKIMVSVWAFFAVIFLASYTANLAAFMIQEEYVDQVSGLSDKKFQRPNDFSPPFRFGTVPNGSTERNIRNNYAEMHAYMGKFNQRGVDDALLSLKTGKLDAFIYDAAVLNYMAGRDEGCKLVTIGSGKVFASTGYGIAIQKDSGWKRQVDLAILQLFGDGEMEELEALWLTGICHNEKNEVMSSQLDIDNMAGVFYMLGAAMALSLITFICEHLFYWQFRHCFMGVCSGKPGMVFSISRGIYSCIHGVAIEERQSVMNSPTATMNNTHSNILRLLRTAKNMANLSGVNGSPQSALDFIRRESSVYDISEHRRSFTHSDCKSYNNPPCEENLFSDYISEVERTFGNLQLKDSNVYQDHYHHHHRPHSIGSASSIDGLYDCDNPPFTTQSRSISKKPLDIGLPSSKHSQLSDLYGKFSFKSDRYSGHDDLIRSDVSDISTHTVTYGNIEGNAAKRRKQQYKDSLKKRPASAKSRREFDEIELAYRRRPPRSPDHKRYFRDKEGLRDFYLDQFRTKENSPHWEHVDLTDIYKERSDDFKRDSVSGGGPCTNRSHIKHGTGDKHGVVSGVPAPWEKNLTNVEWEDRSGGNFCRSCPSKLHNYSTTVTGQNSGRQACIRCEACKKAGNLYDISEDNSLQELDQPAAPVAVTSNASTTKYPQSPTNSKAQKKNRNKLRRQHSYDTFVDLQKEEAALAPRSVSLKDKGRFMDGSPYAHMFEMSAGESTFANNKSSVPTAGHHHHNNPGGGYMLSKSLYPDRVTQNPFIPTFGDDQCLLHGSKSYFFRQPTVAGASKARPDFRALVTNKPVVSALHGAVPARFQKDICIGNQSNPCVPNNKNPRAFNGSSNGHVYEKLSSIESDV
Background: Calcium flux is commonly read through the fluorescence of an indicator in the cells.
As to `FC1CN(c2cnc(OCc3cn(-c4ccc(Cl)c(OC(F)F)c4)nn3)nc2)C1` [Example 392, 2-((1-(4-Chloro-3-(difluoromethoxy)phenyl)-1H-1,2,3-triazol-4-yl)methoxy)-5-(3-fluoroazetidin-1-yl)pyrimidine], the 50% inhibitory concentration (IC50) was found to be 0.017 µM.

In the case of `COCc1ccnc(OCc2cn(-c3ccc(F)c(C)c3F)nn2)n1` [Example 645, 2-[[1-(2,4-Difluoro-3-methyl-phenyl)triazol-4-yl]methoxy]-4-(methoxymethyl)pyrimidine], the IC50 amounted to 0.799 µM.

As for `Fc1ccc(-n2cc(COc3ncc(N4CCOCC4)cn3)nn2)cc1C(F)(F)F` [Example 456, 4-(2-((1-(4-Fluoro-3-(trifluoromethyl)phenyl)-1H-1,2,3-triazol-4-yl)methoxy)pyrimidin-5-yl)morpholine], the IC50 stood at 0.5 µM.

Take `CCc1cnc(OCc2cn(-c3cc(C)ccn3)nn2)nc1` [Example 663, 5-Ethyl-2-[[1-(4-methyl-2-pyridyl)triazol-4-yl]methoxy]pyrimidine]: the half-inhibitory concentration (IC50) amounted to 2.45 µM.

For `Nc1ccnc(OCc2cn(-c3ccc(F)c(OC(F)F)c3)nn2)n1` [Example 501, 2-[[1-[3-(Difluoromethoxy)-4-fluoro-phenyl]triazol-4-yl]methoxy]pyrimidin-4-amine], the IC50 amounted to 0.052 µM.

As to `CCc1cnc(OCc2cn(-c3ccnc(Br)c3)nn2)nc1` [Example 665, 2-[[1-(2-Bromo-4-pyridyl)triazol-4-yl]methoxy]-5-ethyl-pyrimidine], the half-inhibitory concentration (IC50) stood at 0.261 µM.

As for `CC(C)(O)c1cnc(OCc2cn(-c3cccc(Cl)c3F)nn2)nc1` [Example 615, 2-[2-[[1-(3-Chloro-2-fluoro-phenyl)triazol-4-yl]methoxy]pyrimidin-5-yl]propan-2-ol], the half-maximal inhibitory concentration (IC50) was 4.66 µM.

With `CN(C)c1ccnc(OCc2cn(-c3ccc(F)c(C(F)F)c3)nn2)n1` [Example 415, 2-[[1-[3-(Difluoromethyl)-4-fluoro-phenyl]triazol-4-yl]methoxy]-N,N-dimethyl-pyrimidin-4-amine], the IC50 came to 0.008 µM.

Take `COc1cnc(OCc2cn(-c3ccc(F)c(F)c3)nn2)nc1` [Example 599, 2-[[1-(3,4-Difluorophenyl)triazol-4-yl]methoxy]-5-methoxy-pyrimidine]: the 50% inhibitory concentration (IC50) is 0.034 µM.

For `Fc1cccc(-n2cc(COc3ncccn3)nn2)c1F` [Example 607, 2-[[1-(2,3-Difluorophenyl)triazol-4-yl]methoxy]pyrimidine], the IC50 is 3.43 µM.

`CC(O)(c1cnc(OCc2cn(-c3ccc(F)c(C(F)(F)F)c3)nn2)nc1)C(F)(F)F` (racemic) [Example 441, (R/S)-1,1,1-Trifluoro-2-[2-[[1-[4-fluoro-3-(trifluoromethyl)phenyl]triazol-4-yl]methoxy]pyrimidin-5-yl]propan-2-ol]: the IC50 was determined as 0.412 µM.

With `CC(F)(F)c1cc(-n2cc(COc3nccc(N4CCCC4)n3)nn2)ccc1Cl` [Example 553, 2-[[1-[4-Chloro-3-(1,1-difluoroethyl)phenyl]triazol-4-yl]methoxy]-4-pyrrolidin-1-yl-pyrimidine], the IC50 amounted to 0.043 µM.

As for `CNc1ccnc(OCc2cn(-c3ccc(F)c(C(C)(F)F)c3)nn2)n1` [Example 581, 2-[[1-[3-(1,1-Difluoroethyl)-4-fluoro-phenyl]triazol-4-yl]methoxy]-N-methyl-pyrimidin-4-amine], the concentration for half-maximal inhibition (IC50) was 0.033 µM.

As for `Cc1cnc(OCc2cn(-c3cc(C)ccn3)nn2)nc1` [Example 662, 5-Methyl-2-[[1-(4-methyl-2-pyridyl)triazol-4-yl]methoxy]pyrimidine], the IC50 is > 2.99 µM.

Consider `Fc1ccc(-n2cc(COc3nccc(-n4cccn4)n3)nn2)cc1C(F)F` [Example 699, 2-((1-(3-(Difluoromethyl)-4-fluorophenyl)-1H-1,2,3-triazol-4-yl)methoxy)-4-(1H-pyrazol-1-yl)pyrimidine], for which the IC50 was 0.389 µM.

With `Cc1nc(OCc2nnn(-c3ccc(F)c(C(C)(F)F)c3)c2C)ncc1Cl` [Example 596, 5-Chloro-2-[[1-[3-(1,1-difluoroethyl)-4-fluoro-phenyl]-5-methyl-triazol-4-yl]methoxy]-4-methyl-pyrimidine], the 50% inhibitory concentration (IC50) was 0.601 µM.

With `OCc1cnc(OCc2cn(-c3ccc(F)c(Br)c3)nn2)nc1` [Example 616, [2-[[1-(3-Bromo-4-fluoro-phenyl)triazol-4-yl]methoxy]pyrimidin-5-yl]methanol], the concentration for half-maximal inhibition (IC50) was 0.03 µM.

`CN(C)c1ccnc(OCc2cn(-c3ccc(F)c(C(F)(F)F)c3)nn2)n1` [Example 450, 2-[[1-[4-Fluoro-3-(trifluoromethyl)phenyl]triazol-4-yl]methoxy]-N,N-dimethyl-pyrimidin-4-amine]: the IC50 was determined as 0.03 µM.

Take `Cc1nc(OCc2cn(-c3ccc(F)c(C(C)(F)F)c3)nn2)ncc1F` [Example 575, 2-[[1-[3-(1,1-Difluoroethyl)-4-fluoro-phenyl]triazol-4-yl]methoxy]-5-fluoro-4-methyl-pyrimidine]: the IC50 worked out at 0.006 µM.

Regarding `Cc1cnc(OCc2cn(-c3ccc(F)c(C(C)(F)F)c3)nn2)nc1C` [Example 573, 2-[[1-[3-(1,1-Difluoroethyl)-4-fluoro-phenyl]triazol-4-yl]methoxy]-4,5-dimethyl-pyrimidine], the IC50 was 0.019 µM.

Take `Cc1nc(OCc2cn(-c3ccc(F)c(C(F)(F)F)c3)nn2)ncc1N1CCC1` [Example 457, 5-(Azetidin-1-yl)-2-((1-(3-(trifluoromethyl)-4-fluorophenyl)-1H-1,2,3-triazol-4-yl)methoxy)-4-methylpyrimidine]: the 50% inhibitory concentration (IC50) is 0.296 µM.

The same assay, now with this note: standard assay; human GluN1/GluN2B, calcium flux (FLIPR), glutamate ~EC80.
Regarding `CC(C)c1cnc(OCc2cn(-c3ccc(F)c(Br)c3)nn2)nc1` [Example 43, 2-[[1-(3-Bromo-4-fluoro-phenyl)triazol-4-yl]methoxy]-5-isopropylpyrimidine], the IC50 is 0.005 µM.

As to `CC(F)(F)c1cc(-n2cc(COc3ncccn3)nn2)ccc1F` [Example 78, 2-[[1-[3-(1,1-Difluoroethyl)-4-fluoro-phenyl]triazol-4-yl]methoxy]pyrimidine], the concentration for half-maximal inhibition (IC50) was 0.06 µM.

Turning to `Cc1cnc(OCc2cn(-c3ccc(OC(F)F)cc3)nn2)nc1` [Example 333, 2-[[1-[4-(Difluoromethoxy)phenyl]triazol-4-yl]methoxy]-5-methyl-pyrimidine], the half-maximal inhibitory concentration (IC50) was 0.087 µM.

`CNc1ccnc(OCc2cn(-c3ccc(Cl)c(OC(F)F)c3)nn2)n1` [Example 171, 2-[[1-[4-Chloro-3-(difluoromethoxy)phenyl]triazol-4-yl]methoxy]-N-methyl-pyrimidin-4-amine]: the concentration for half-maximal inhibition (IC50) was found to be 0.006 µM.

Take `CC(C)c1cccc(-n2cc(COc3ncc(Cl)cn3)nn2)c1` [Example 265, 5-Chloro-2-[[1-(3-isopropylphenyl)triazol-4-yl]methoxy]pyrimidine]: the IC50 turned out to be 0.016 µM.

With `Cc1cnc(OCc2cn(-c3cccc(C(C)(F)F)c3)nn2)nc1` [Example 297, 2-[[1-[3-(1,1-Difluoroethyl)phenyl]triazol-4-yl]methoxy]-5-methyl-pyrimidine], the half-inhibitory concentration (IC50) came out at 0.005 µM.

Consider `CCc1cnc(OCc2cn(-c3cccc(C(F)(F)F)c3)nn2)nc1` [Example 287, 5-Ethyl-2-[[1-[3-(trifluoromethyl)phenyl]triazol-4-yl]methoxy]pyrimidine], for which the 50% inhibitory concentration (IC50) is 0.005 µM.

With `Fc1ccnc(OCc2cn(-c3ccc(Cl)c(OC(F)F)c3)nn2)n1` [Example 191, 2-[[1-[4-Chloro-3-(difluoromethoxy)phenyl]triazol-4-yl]methoxy]-4-fluoro-pyrimidine], the IC50 is 0.023 µM.

As to `Cc1ccccc1-n1cc(COc2ncccn2)nn1` [Example 236, 2-[[1-(o-Tolyl)triazol-4-yl]methoxy]pyrimidine], the concentration for half-maximal inhibition (IC50) was > 10 µM.

For the compound `Cc1cnc(OCc2cn(-c3cccc(C(C)(F)F)c3)nn2)nc1N` [Example 314, 2-[[1-[3-(1,1-Difluoroethyl)phenyl]triazol-4-yl]methoxy]-5-methyl-pyrimidin-4-amine], the IC50 came out at 0.006 µM.

Consider `FC(F)Oc1cc(-n2cc(COc3cccnc3)nn2)ccc1Cl` [Example 5, 3-[[1-[4-Chloro-3-(difluoromethoxy)phenyl]triazol-4-yl]methoxy]pyridine], for which the IC50 was 0.333 µM.

On to `Cc1nc(OCc2cn(-c3cccc(C(F)F)c3)nn2)ncc1Cl` [Example 279, 5-Chloro-2-[[1-[3-(difluoromethyl)phenyl]triazol-4-yl]methoxy]-4-methyl-pyrimidine], for which the concentration for half-maximal inhibition (IC50) is 0.003 µM.

`Cc1cnc(OCc2cn(-c3ccc(Br)c(C)n3)nn2)nc1` [Example 94, 2-[[1-(5-Bromo-6-methyl-2-pyridyl)triazol-4-yl]methoxy]-5-methyl-pyrimidine]: the half-inhibitory concentration (IC50) came to 2.91 µM.

Regarding `Fc1cnc(OCc2cn(-c3ccc(Cl)c(C(F)F)c3)nn2)nc1` [Example 66, 2-[[1-[4-Chloro-3-(difluoromethyl)phenyl]triazol-4-yl]methoxy]-5-fluoro-pyrimidine], the IC50 was found to be 0.052 µM.

Regarding `Cc1cnc(N[C@H](C)c2cn(-c3ccc(Cl)c(OC(F)F)c3)nn2)nc1` [Example 224, N-[(1R)-1-[1-[4-Chloro-3-(difluoromethoxy)phenyl]triazol-4-yl]ethyl]-5-methyl-pyrimidin-2-amine], the 50% inhibitory concentration (IC50) was determined as 0.121 µM.

Consider `FC1(F)Oc2ccc(-n3cc(COc4ncccn4)nn3)cc2O1` [Example 355, 2-[[1-(2,2-Difluoro-1,3-benzodioxol-5-yl)triazol-4-yl]methoxy]pyrimidine], for which the IC50 was 0.238 µM.

As to `FC(F)c1cccc(-n2cc(COc3ncccn3)nn2)c1` [Example 93, 2-[[1-[3-(Difluoromethyl)phenyl]triazol-4-yl]methoxy]pyrimidine], the IC50 was determined as 0.493 µM.

For `Fc1ccc(-n2cc(COc3ncc(C(F)(F)F)cn3)nn2)cc1C(F)(F)F` [Example 76, 2-[[1-[4-Fluoro-3-(trifluoromethyl)phenyl]triazol-4-yl]methoxy]-5-(trifluoromethyl)pyrimidine], the 50% inhibitory concentration (IC50) was determined as 0.035 µM.

On to `Cc1cnc(OCc2cn(-c3cccc(C(F)F)c3)nn2)nc1` [Example 89, 2-[[1-[3-(Difluoromethyl)phenyl]triazol-4-yl]methoxy]-5-methyl-pyrimidine], for which the IC50 turned out to be 0.011 µM.

In general, IC50 refers to the concentration needed to halve the response being measured.
